Drawing on ChEMBL document CHEMBL3039007, “Structure-based identification of OATP1B1/3 inhibitors” (Mol Pharmacol, 2013), this text covers residual activity for 40 compounds.

Data set [1] deals with T1, Solute carrier organic anion transporter family member 1B3 (Homo sapiens, UniProt Q9NPD5).
T1 sequence (Q9NPD5 whole entry): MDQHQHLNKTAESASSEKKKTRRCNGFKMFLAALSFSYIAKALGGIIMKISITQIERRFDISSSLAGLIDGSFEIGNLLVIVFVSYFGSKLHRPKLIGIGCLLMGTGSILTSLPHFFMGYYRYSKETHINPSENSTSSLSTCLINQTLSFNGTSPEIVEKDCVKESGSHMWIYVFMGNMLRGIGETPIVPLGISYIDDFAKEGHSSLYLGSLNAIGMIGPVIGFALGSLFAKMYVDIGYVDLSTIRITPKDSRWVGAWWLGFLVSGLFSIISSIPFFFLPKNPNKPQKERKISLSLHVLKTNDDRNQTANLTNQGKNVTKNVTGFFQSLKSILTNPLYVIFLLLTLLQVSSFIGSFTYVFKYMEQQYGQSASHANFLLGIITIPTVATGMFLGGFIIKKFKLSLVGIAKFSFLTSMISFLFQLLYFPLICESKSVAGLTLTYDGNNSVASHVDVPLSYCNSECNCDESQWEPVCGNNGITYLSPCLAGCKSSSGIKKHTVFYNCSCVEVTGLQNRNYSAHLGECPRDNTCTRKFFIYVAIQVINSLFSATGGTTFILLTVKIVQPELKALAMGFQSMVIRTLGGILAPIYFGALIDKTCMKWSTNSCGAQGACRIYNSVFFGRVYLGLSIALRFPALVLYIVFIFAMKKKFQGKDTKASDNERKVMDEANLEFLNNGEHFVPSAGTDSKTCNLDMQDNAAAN
The following applies: chinese hamster, cho, 10 µM.

Data set [2] concerns the target T2, Solute carrier organic anion transporter family member 1B1 (Homo sapiens, UniProt Q9Y6L6).
T2 sequence (Q9Y6L6 whole entry): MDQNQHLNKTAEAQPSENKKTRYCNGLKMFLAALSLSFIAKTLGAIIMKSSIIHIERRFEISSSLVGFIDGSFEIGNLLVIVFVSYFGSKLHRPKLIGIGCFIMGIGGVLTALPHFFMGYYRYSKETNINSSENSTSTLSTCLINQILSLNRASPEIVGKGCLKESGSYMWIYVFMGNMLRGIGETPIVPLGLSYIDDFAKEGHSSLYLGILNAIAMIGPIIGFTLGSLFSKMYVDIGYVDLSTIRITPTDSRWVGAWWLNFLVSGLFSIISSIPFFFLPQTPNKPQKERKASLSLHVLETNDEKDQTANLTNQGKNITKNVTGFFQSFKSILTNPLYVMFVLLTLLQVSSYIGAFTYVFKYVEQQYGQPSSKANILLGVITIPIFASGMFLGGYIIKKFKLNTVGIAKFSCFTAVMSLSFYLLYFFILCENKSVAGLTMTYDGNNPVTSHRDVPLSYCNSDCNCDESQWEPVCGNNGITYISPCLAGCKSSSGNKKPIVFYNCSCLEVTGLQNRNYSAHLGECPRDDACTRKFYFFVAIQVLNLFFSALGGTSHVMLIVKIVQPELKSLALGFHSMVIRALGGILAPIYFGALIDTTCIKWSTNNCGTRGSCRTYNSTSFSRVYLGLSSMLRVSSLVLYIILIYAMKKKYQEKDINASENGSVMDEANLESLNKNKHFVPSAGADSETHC
To be noted: chinese hamster, cho, 10 µM.

For the compound `CC(C)(C)NCC(O)c1cc(O)cc(O)c1.O=S(=O)(O)O` (stereo not given), the residual activity in data set [1] stood at 94.09%; in data set [2], 89.3%.
Taken in the same sequence, the figures for `COc1cccc(OC)c1OCCNCC1COc2ccccc2O1.Cl` (stereo not given) [2- (2,6-DIMETHOXYPHENOXYETHYL)AMINOMETHYL-1,4-BENZODIOXANE HYDROCHLORIDE (WB 4101)] were 96.02% and 247.1%.
Turning to `O=C(/C=C/c1ccc(O)c(O)c1)OCCc1ccccc1` [CAFFEIC ACID PHENETHYL ESTER], the results for the residual activity in data set [1] and in data set [2] were 143.5% and 254%, respectively.
Taken in the same sequence, the figures for `Nc1ccc(C(=O)O)cc1` [AMINOBENZOIC ACID] were 88.18% and 85.02%.
For `O=C1CCC(N2C(=O)c3ccccc3C2=O)C(=O)N1` (stereo not given) [THALIDOMIDE], the values for the residual activity in data set [1] and in data set [2] were 101% and 82.94%, respectively.
Consider `COC(=O)c1c(OC)cc2c(c1C)Oc1c(Cl)c(OC(C)=O)c(Cl)c(C)c1C(=O)O2` [GANGLEOIDIN ACETATE], for which the residual activity in data set [1] was determined as 54.62%; in data set [2], 34.6%.
For `COC1=CC(=O)C(O)=C/C1=C\C=C\c1ccccc1` [OBTUSAQUINONE], the residual activity in data set [1] is 88.38%; in data set [2] it was 60.32%.
For the compound `CCC/C=C1\OC(=O)C2=C1CCC=C2` [LIGUSTILIDE], the figures for the residual activity in data set [1] and in data set [2] were 107.5% and 117.7%, respectively.
Taken in the same sequence, the figures for `Oc1c(Cl)c(Cl)c(Cl)c(Cl)c1Cl` [PENTACHLOROPHENOL] were 40.68% and 19.96%.
Regarding `C=CC(C1=CC(=O)C=CC1=O)c1ccccc1` (stereo not given) [DALBERGIONE], the values for the residual activity in data set [1] and in data set [2] were 269.8% and 72.19%, respectively.
In the same order, the values of `C=C1CCC(=O)C(C)CCC2C1CC2(C)C` (stereo not given) [DIHYDROCARYOPHYLLEN-5-ONE] are 39.09% and 24.21%.
In the case of `CC(=O)Nc1ccc(OCC(O)CNC(C)C)cc1` (stereo not given) [PRACTOLOL], the residual activity in data set [1] was 99.03%; in data set [2] it was 107.1%.
For `C=C1CC/C=C(\C)CC[C@@H]2[C@@H]1CC2(C)C` [BETA-CARYOPHYLLENE], the residual activity is 88.67% in data set [1] and 99.94% in data set [2].
Taken in the same sequence, the figures for `CC(=O)O[C@H]1CC[C@@]2(C)[C@H](CC[C@@H]3[C@@H]2CC[C@]2(C)[C@@H](C4=CC(=O)OC4)[C@@H](OC(C)=O)C[C@]32O)C1` [GITOXIGENIN DIACETATE] were 118.5% and 111.6%.
In the case of `c1cc2c(cc1[C@H]1OC[C@H]3[C@@H]1CO[C@H]3c1ccc3c(c1)OCO3)OCO2` [ASARININ], the residual activity in data set [1] is on record as 116.8%; in data set [2] it was 107.7%.
With `COc1cc2c(cc1OC)[C@@H]1C(=O)c3ccc4c(c3O[C@@H]1CO2)C=CC(C)(C)O4` [DEGUELIN], the values for the residual activity in data set [1] and in data set [2] were 75.69% and 99.89%, respectively.
On to `CN(C)CCOC(=O)C(c1ccccc1)C1(O)CCCC1.Cl` (stereo not given) [CYCLOPENTOLATE HYDROCHLORIDE], for which the residual activity stood at 100.2% in data set [1] and 87.23% in data set [2].
For the compound `COC(=O)Nc1nc2ccc(Sc3ccccc3)cc2[nH]1` [FENBENDAZOLE], the residual activity in data set [1] is 102.5%; in data set [2], 105.4%.
For the compound `CC(C)=CCc1c(O)cc2oc(C)cc(=O)c2c1O` [PEUCENIN], the residual activity in data set [1] came out at 169%; in data set [2], 137.1%.
`C[C@H]1[C@H](C)CC[C@]2(CO)CC[C@]3(C)C(=CC[C@@H]4[C@@]5(C)CC[C@H](O)C(C)(C)[C@@H]5CC[C@]43C)[C@H]12` [UVAOL]: the values for the residual activity in data set [1] and in data set [2] were 107.5% and 121.5%, respectively.
In the same order, the values of `CCCCOc1ccc(C(=O)CCN2CCCCC2)cc1.Cl` [DYCLONINE HYDROCHLORIDE] are 83.62% and 170.9%.
As to `O=C(CCCN1CCN(c2ccccn2)CC1)c1ccc(F)cc1` [AZAPERONE], the residual activity in data set [1] stood at 108.2%; in data set [2], 88.32%.
For `CCCCCCOc1ccccc1C(N)=O` [EXALAMIDE], the residual activity in data set [1] is given as 129.1%; in data set [2] it was 188.8%.
With `O=C1[C@H](CC[C@H](O)c2ccc(F)cc2)[C@@H](c2ccc(O)cc2)N1c1ccc(F)cc1` [EZETIMIBE], the residual activity is listed as 30.63% in data set [1] and 51.36% in data set [2].
Turning to `N=c1[nH]c(=O)c2[nH]c(=O)c(=O)[nH]c2[nH]1` [LEUCOPTERIN], the residual activity is recorded as 98.11% in data set [1] and 136.6% in data set [2].
As to `CC1(C)[C@H](O)CC(=O)[C@]2(C)[C@H]3CC[C@@]4(C)[C@H](c5ccoc5)OC(=O)[C@H]5O[C@]54[C@]3(C)C(=O)C[C@@H]12`, the residual activity is listed as 61.45% in data set [1] and 33.49% in data set [2].
Turning to `CC(=O)O[C@@H]1C[C@H]2C(C)(C)C(=O)[C@H]3O[C@H]3[C@]2(C)[C@H]2CC[C@@]3(C)[C@H](c4ccoc4)OC(=O)[C@H]4O[C@]43[C@@]21C`, the results for the residual activity in data set [1] and in data set [2] were 88.38% and 58.52%, respectively.
With `CC(CCc1ccccc1)NC(C)C(O)c1ccc(O)cc1.Cl` (stereo not given) [NYLIDRIN HYDROCHLORIDE], the residual activity in data set [1] is 116.9%; in data set [2] it was 112.1%.
In the same order, the values of `Cc1ccccc1N1C(=O)c2cc(S(N)(=O)=O)c(Cl)cc2NC1C` (stereo not given) [METOLAZONE] are 66.79% and 62.42%.
Regarding `NCCC(=O)N[C@@H](Cc1cnc[nH]1)C(=O)O` [CARNOSINE], the figures for the residual activity in data set [1] and in data set [2] were 98.86% and 26.44%, respectively.
On to `C=C[C@@]1(C)CC(=O)[C@]2(O)[C@@]3(C)[C@@H](O)CCC(C)(C)[C@@H]3[C@H](O)[C@H](OC(C)=O)[C@@]2(C)O1` [COLFORSIN], for which the residual activity in data set [1] was 83.25%; in data set [2], 118.8%.
`O=c1cc(-c2ccc(O)cc2)oc2cc(O)cc(O)c12` [APIGENIN]: the results for the residual activity in data set [1] and in data set [2] were 134.2% and 84.2%, respectively.
With `NC(=O)N1c2ccccc2C=Cc2ccccc21` [CARBAMAZEPINE], the residual activity in data set [1] was determined as 99.43%; in data set [2], 121.6%.
Taken in the same sequence, the figures for `CC(N)C(=O)NC(Cc1ccccc1)C(=O)O` (racemic) [ALANYL-dl-PHENYLALANINE] were 75.84% and 90.94%.
Turning to `C/C=C(\C)C(=O)O[C@H]1C[C@@H](OC(C)=O)[C@@]2(C(=O)OC)CO[C@H]3[C@@H](O)[C@@](C)([C@]45O[C@@]4(C)[C@@H]4C[C@H]5O[C@@H]5OC=C[C@@]54O)[C@H]4[C@]1(CO[C@]4(O)C(=O)OC)[C@@H]32` [AZADIRACHTIN A], the residual activity in data set [1] came to 74.42%; in data set [2], 51.12%.
For `COC(=O)[C@H](O)[C@H]1C(C)(C)[C@H](OC(C)=O)[C@@H]2CC3=C4CC(=O)O[C@@H](c5ccoc5)[C@]4(C)CC[C@@H]3[C@@]1(C)C2=O` [SWIETENOLIDE-3-ACETATE], the figures for the residual activity in data set [1] and in data set [2] were 66.25% and 54.05%, respectively.
Turning to `CN(C)CCCN1c2ccccc2CCc2ccccc21.Cl` [IMIPRAMINE HYDROCHLORIDE], the figures for the residual activity in data set [1] and in data set [2] were 92.77% and 61.55%, respectively.
Take `CC1=CC(=O)[C@H]2C(C)(C)CCC[C@]2(C)[C@@]1(O)CCc1ccoc1`: the results for the residual activity in data set [1] and in data set [2] were 78.78% and 48.25%, respectively.
In the case of `NCC(CC(=O)O)c1ccc(Cl)s1` (stereo not given) [4-AMINO-3- (5-CHLOROTHIEN-2-YL)BUTANOIC ACID], the residual activity is 99.7% in data set [1] and 116.9% in data set [2].
Consider `NC(=O)c1ccccc1O` [SALICYLAMIDE], for which the residual activity in data set [1] was determined as 94.84%; in data set [2], 85.6%.
